Laboratory results published in patent publication EP0819124B1, “AZOLE COMPOUNDS WITH ANTIMYCOTIC ACTIVITY FOR HUMAN AND VETERINARY USE” (ZAMBON GROUP S.p.A., priority 1995, dated 1996).
≈ marks a conversion by molar mass, not a printed value. Like-named read-outs stand apart in the source and are kept apart here.

Tests used:
A. niger = test: In vitro antimycotic activity against recently isolated Aspergillus niger (Table 3); format: cell-based; settings: A. niger strain 94-6222; quantity and unit not given in Table 3
Description: (§1) The determination of the activity inhibiting the growth of mycetes was evaluated by the macromethod of scalar brothdilutions in geometrical progression (M.R. McGinnis and M.G. Rinaldi, "Antifungal drugs: mechanisms of action, drug resistance, susceptibility testing and assay of activity in biological fluids", in Antibiotic in Laboratory Medicine, Ed. V. Lorian, Baltimora 1991).
(§2) As culture media Yeast Nitrogen Base broth (YNB) and Sabouraud Dextrose broth (SDB) were used for yeasts and moulds, respectively.
(§3) The results obtained in SDB (after incubation at 28°C for 7 days) were expressed as minimum inhibiting concentrations (MIC) the growth of mycetes, while those obtained in YNB (after incubation at 35°C for 48 hours) were expressed as concentrations able to inhibit at 50% (IC50) the growth of the yeast.
(§4) As reference compounds Fluconazole, Itraconazole and Genaconazole were used.

C. neoformans = test: In vitro antimycotic activity, macromethod of scalar broth dilutions (YNB); format: cell-based; settings: Cryptococcus neoformans
Description: as §1, §2, §3, §4

Candida albicans 1040 = test: In vivo antimycotic activity in mice experimentally infected by C. albicans, oral route; design: species or system Charles River white mice (CD1 strain); settings: for % percentage of survival after day 3 / % percentage of survival after day 6: mice infected by C. albicans, dose 25 mg/kg/os; for PD50 at 8th day / PD50 at 14th day: oral route, probits analysis; for PD50 at 8th day: 8 days from the infection; for PD50 at 14th day: 14 days from the infection
Description: Charles River white mice (CD1 strain) weighing from 23 to 25 g, normo-feeded with standard diet and water ad libitum were used.
A suspension (0.2 ml containing 2.5x10^7 cells/ml) of Candida albicans 1040 in physiologic solution was injected to each animal by venous route. Immediately after the infection and after 4, 24 and 48 hours, the animals received by oral route (in arabic gum at 2%) doses increasing in a geometrical progression of the compound to be tested. The infected group was used as control.
The observation of the mortality of the mice was prolonged up to 14 days. From the number of survived animals for each concentration the average protective dose (DP50) was calculated by probits analysis (L.Lison - "Statistica applicata alla biologia sperimentale. La programmazione dell'esperimento e l'analisi dei risultati" - Casa Editrice Ambrosiana, 1961).
Compounds R1 and R2 were used as comparative compounds.
Fluconazole and Itraconazole were used as reference compounds.

Fusarium sp = test: In vitro antimycotic activity against recently isolated Fusarium strains (Tables 2 and 3); format: cell-based; settings: for MIC: Fusarium; for In vitro antimycotic activity: quantity and unit not given in Table 3
Description: as §1, §2, §3, §4
(§5) Note to the table: MIC expressed as µg/ml Within brackets the number of tested strains Table 3

A. fumigatus = test: In vitro antimycotic activity, macromethod of scalar broth dilutions (SDB); format: cell-based; settings: Aspergillus fumigatus, 168 h
Description: as §1, §2, §3, §4

C. krusei (2) = test: In vitro antimycotic activity, strain panel (Table 2); format: cell-based, Candida krusei; settings: Pichia kudriavzevii
Description: as §1, §2, §3, §4, §5

Trichosporon sp. (1) = test: as above; format: cell-based
Description: as §1, §2, §3, §4, §5

C. albicans (7) = test: as above; format: cell-based; settings: Candida albicans
Description: as §1, §2, §3, §4, §5

C. neoformans (4) = test: as above; format: cell-based; settings: Cryptococcus neoformans
Description: as §1, §2, §3, §4, §5

[1] = tested on: C. spp * (5) (C. parapsilosis, lusitaniae, kefyr); test: as above; format: cell-based; settings: Lodderomyces parapsilosis
Description: as §1, §2, §3, §4, §5

B. capitatus (1) = test: as above; format: cell-based; settings: Magnusiomyces capitatus
Description: as §1, §2, §3, §4, §5

C. tropicalis (2) = test: as above; format: cell-based; settings: Candida tropicalis
Description: as §1, §2, §3, §4, §5

C. albicans 1040 = test: In vitro antimycotic activity, macromethod of scalar broth dilutions (YNB); format: cell-based, Candida albicans
Description: as §1, §2, §3, §4

C. glabrata (2) = test: In vitro antimycotic activity, strain panel (Table 2); format: cell-based, Candida glabrata; settings: Nakaseomyces glabratus
Description: as §1, §2, §3, §4, §5

T.mentagrophytes = test: In vitro antimycotic activity, macromethod of scalar broth dilutions (SDB); format: cell-based, Trychophyton mentagrophytes; settings: Trichophyton mentagrophytes, 168 h
Description: as §1, §2, §3, §4

[2] = Trichosporon sp., 1 strain, single value under head MIC50 MIC90, read-out: MIC
[3] = C. albicans, 7 strains, read-out: MIC50
[4] = C. albicans, 7 strains, read-out: MIC90
[5] = C. neoformans, 4 strains, read-out: MIC50
[6] = C. neoformans, 4 strains, read-out: MIC90
[7] = C. parapsilosis, lusitaniae, kefyr, 5 strains, read-out: MIC50
[8] = C. parapsilosis, lusitaniae, kefyr, 5 strains, read-out: MIC90
[9] = B. capitatus, 1 strain, single value under head MIC50 MIC90, read-out: MIC
[10] = C. tropicalis, 2 strains, single value or range printed under head MIC50 MIC90, read-out: MIC
[11] = C. krusei, 2 strains, range printed under head MIC50 MIC90, read-out: MIC

| SMILES | In vitro antimycotic activity (A. niger) | % percentage of survival after day 3 (Candida albicans 1040) [%] | % percentage of survival after day 6 (Candida albicans 1040) [%] | PD50 at 8th day (Candida albicans 1040) [mg/kg/os] | PD50 at 14th day (Candida albicans 1040) [mg/kg/os] | MIC (Fusarium sp) [µg/mL] | In vitro antimycotic activity (Fusarium sp; Fusarium sp strain 81-256) | In vitro antimycotic activity (Fusarium sp; Fusarium sp strain 86-3369) | In vitro antimycotic activity (Fusarium sp; Fusarium sp strain 88-2116) | In vitro antimycotic activity (Fusarium sp; Fusarium sp strain 946301) | MIC (Trichosporon sp. (1); [2]) [µg/mL] | MIC50 (C. albicans (7); [3]) [µg/mL] | MIC90 (C. albicans (7); [4]) [µg/mL] | MIC50 (C. neoformans (4); [5]) [µg/mL] | MIC90 (C. neoformans (4); [6]) [µg/mL] | MIC50 [1, 7] [µg/mL] | MIC90 [1, 8] [µg/mL] | MIC (B. capitatus (1); [9]) [µg/mL] | MIC (C. tropicalis (2); [10]) [µg/mL] | MIC (C. krusei (2); [11]) [µg/mL] | also measured |
| --- | --- | --- | --- | --- | --- | --- | --- | --- | --- | --- | --- | --- | --- | --- | --- | --- | --- | --- | --- | --- | --- |
| CC(COC(F)(F)C(F)F)C(O)(Cn1cncn1)c1ccc(Cl)cc1Cl (racemic) [Compound 1, (±)-1-(1H-1,2,4-triazolyl)-2-hydroxy-2-(2,4-dichlorophenyl)-3-methyl-4-(1,1,2,2-tetrafluoroethoxy)butane] | ≤0.03 | 100 | 100 | 0.120 | 0.74 | 0.25 (≈ 0.601 µM) | 0.25 | 0.5 | 0.5 | 0.5 | – | – | – | – | – | – | – | – | – | – | IC50 (C. neoformans; 48 h): 0.004 µg/mL (≈ 0.00961 µM); MIC (A. fumigatus): 8 µg/mL (≈ 19.2 µM); MIC (C. krusei (2)): 0.03 to 0.12 µg/mL (≈ 0.0721 to 0.288 µM); MIC (Trichosporon sp. (1); Trichosporon): ≤ 0.03 µg/mL; MIC50 (C. albicans (7)): ≤ 0.03 µg/mL; MIC90 (C. albicans (7)): 0.06 µg/mL (≈ 0.144 µM); MIC50 (C. neoformans (4)): ≤ 0.03 µg/mL; MIC90 (C. neoformans (4)): ≤ 0.03 µg/mL; MIC50 [1]: ≤ 0.03 µg/mL; MIC90 [1]: ≤ 0.03 µg/mL; MIC (B. capitatus (1)): ≤ 0.03 µg/mL; MIC (C. tropicalis (2)): 0.12 µg/mL (≈ 0.288 µM); IC50 (C. albicans 1040; Candida albicans, 1040, 48 h): 0.0156 µg/mL (≈ 0.0375 µM); MIC (C. glabrata (2)): 0.12 µg/mL (≈ 0.288 µM); MIC (T.mentagrophytes): 0.125 µg/mL (≈ 0.3 µM) |
| CC(C)(COC(F)(F)C(F)F)C(O)(Cn1cncn1)c1ccc(F)cc1F (racemic) [Compound 5] | – | – | – | 0.50 | 1.14 | 0.25 (≈ 0.629 µM) | – | – | – | – | ≤ 0.03 | ≤ 0.03 | 0.5 (≈ 1.26 µM) | ≤ 0.03 | ≤ 0.03 | ≤ 0.03 | ≤ 0.03 | 0.06 (≈ 0.151 µM) | 0.12 (≈ 0.302 µM) | – | IC50 (C. neoformans; C. neoformans, YNB, incubation at 35°C for 48 hours, read-out: IC50): 0.0156 µg/mL (≈ 0.0393 µM); MIC (A. fumigatus; A. fumigatus, SDB, incubation at 28°C for 7 days, read-out: MIC): 8 µg/mL (≈ 20.1 µM); MIC50 (C. krusei (2)): ≤ 0.03 µg/mL; MIC90 (C. krusei (2)): 0.12 µg/mL (≈ 0.302 µM); IC50 (C. albicans 1040; Candida albicans, C. albicans 1040, YNB, incubation at 35°C for 48 hours, read-out: IC50): 0.0156 µg/mL (≈ 0.0393 µM); MIC (C. glabrata (2); C. glabrata, 2 strains, single value or range printed under head MIC50 MIC90, read-out: MIC): 0.12 µg/mL (≈ 0.302 µM); MIC (T.mentagrophytes; T.mentagrophytes, SDB, incubation at 28°C for 7 days, read-out: MIC): 0.25 µg/mL (≈ 0.629 µM) |
| C[C@H]([C@](O)(Cn1cncn1)c1ccc(F)cc1F)S(C)(=O)=O [Genaconazole, (2R,3R) α-(2,4-difluorophenyl)-α-[1-(methylsulfonyl)ethyl]-1H-1,2,4-triazol-1-ethanol, reference compound] | 32 | – | – | – | – | 64 (≈ 193 µM) | 64 | – | – | – | 32 (≈ 96.6 µM) | 2 (≈ 6.04 µM) | 32 (≈ 96.6 µM) | 8 (≈ 24.1 µM) | 16 (≈ 48.3 µM) | 0.5 (≈ 1.51 µM) | 1 (≈ 3.02 µM) | 16 (≈ 48.3 µM) | > 64 | 16 to 32 (≈ 48.3 to 96.6 µM) | – |
| CCC(C)n1ncn(-c2ccc(N3CCN(c4ccc(OCC5COC(Cn6cncn6)(c6ccc(Cl)cc6Cl)O5)cc4)CC3)cc2)c1=O (centres unmarked) [Itraconazole, reference compound] | ≤0.03 | 100 | 100 | 2.31 | >8 | – | 2 | 2-16 | 2-8 | 2-16 | – | 0.06 (≈ 0.085 µM) | 0.12 (≈ 0.17 µM) | ≤ 0.03 | 0.1 (≈ 0.142 µM) | ≤ 0.03 | 0.06 (≈ 0.085 µM) | – | 0.1 (≈ 0.142 µM) | 0.03 to 0.12 (≈ 0.0425 to 0.17 µM) | – |
